Data as given in patent US6858638B2, “Substituted indazoles, compositions containing them, method of production and use” (Aventis Pharma S.A., priority 2002, dated 2005).
Read-outs that look alike come from different tables or passages of the source.

Key:
Assay type in all cases: biochemical
[1] = molecular target: T1, human IGF1R cytoplasmic domain (Homo sapiens, UniProt P08069); experiment: IGF1R autophosphorylation inhibition, time resolved fluorescence (HTRF) assay; conditions: read-out: IGF1R % inhib at 10 μM
T1 construct: The human IGF1R cytoplasmic domain was cloned; made in house; host or cells: SF21 insect cells (baculovirus)
T1 sequence (P08069 960-1367 limits assumed): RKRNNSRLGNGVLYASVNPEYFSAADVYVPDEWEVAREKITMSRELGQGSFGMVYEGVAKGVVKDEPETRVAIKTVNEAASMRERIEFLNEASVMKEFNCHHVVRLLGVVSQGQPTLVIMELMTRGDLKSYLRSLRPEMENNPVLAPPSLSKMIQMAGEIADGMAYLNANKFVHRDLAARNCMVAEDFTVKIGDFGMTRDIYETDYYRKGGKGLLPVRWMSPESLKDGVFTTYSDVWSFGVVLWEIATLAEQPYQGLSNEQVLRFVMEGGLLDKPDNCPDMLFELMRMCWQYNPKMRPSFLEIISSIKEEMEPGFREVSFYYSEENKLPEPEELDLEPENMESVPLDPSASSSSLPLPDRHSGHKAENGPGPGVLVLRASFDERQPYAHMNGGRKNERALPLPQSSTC
Method: The inhibitory activity of the compounds on IGF1R is determined by measuring the inhibition of the autophosphorylation of the enzyme using a time resolved fluorescence (HTRF) assay.
The human IGF1R cytoplasmic domain was cloned, as a fusion with glutathione S-transferase (GST), into the baculovirus expression vector pFastBac-GST. The protein was expressed in SF21 cells and purified to approximately 80% homogeneity.
The kinase activity was determined by incubating the enzyme with various concentrations of test compound in a 50 mM Hepes buffer, pH 7.5, containing 5 mM MnCl2, 50 mM NaCl, 3% glycerol, 0.025% Tween […] of ATP. The enzyme reaction is stopped by adding 100 mM Hepes buffer, pH 7.0, containing 0.4 M KF, 133 mM EDTA and 0.1% BSA containing an anti-GST antibody labeled with XL665 and an antiphosphotyrosine antibody conjugated to europium cryptate (Eu-K). The characteristics of the two fluorophores, XL-665 and Eu-K, are available in G. Mathis et al., Anticancer Research, 1997, 17, pages 3011-3014. The transfer of energy from the excited europium cryptate to the acceptor XL665 is proportional to the degree of autophosphorylation of IGF1R. The long-lived signal specific for XL-665 is measured in a Victor analyzer plate counter (Perkin-elmer). The inhibition of the IGF1R autophosphorylation activity with compounds of the invention is expressed as percentage inhibition compared to a control whose activity is measured in the absence of test compound.

Aurora2 kinase = molecular target: T2, Aurora2 kinase (Homo sapiens, UniProt O14965); experiment: Aurora2 kinase radioactivity scintillation assay using nickel chelate (NuMA substrate); conditions: read-out: Aurora2 % inhib at 10 μM
T2 construct: A complete recombinant Aurora2 enzyme; His tag (N); made in house; host or cells: E. coli
T2 sequence (O14965 1-403): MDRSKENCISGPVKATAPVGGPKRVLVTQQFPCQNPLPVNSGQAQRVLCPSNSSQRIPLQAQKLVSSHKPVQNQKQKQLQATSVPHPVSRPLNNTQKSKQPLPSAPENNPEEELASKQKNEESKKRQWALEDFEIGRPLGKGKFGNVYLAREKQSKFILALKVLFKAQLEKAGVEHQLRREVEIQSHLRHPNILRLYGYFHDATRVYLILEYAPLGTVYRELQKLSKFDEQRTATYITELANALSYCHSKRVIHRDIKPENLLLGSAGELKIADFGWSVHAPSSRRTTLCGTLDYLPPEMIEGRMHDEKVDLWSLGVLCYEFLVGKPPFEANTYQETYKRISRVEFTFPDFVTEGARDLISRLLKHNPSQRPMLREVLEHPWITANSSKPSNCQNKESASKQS
In short: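 His-tagged full-length Aurora2 (0.02 μM, E. coli) phosphorylating His-tagged NuMA C-terminal fragment (0.5 μM) with 1 μM ATP plus [33P]-ATP, 30 min at 37 °C, pH 7.5 Tris buffer with MgCl2. Nickel-chelate scintillation read; percent inhibition versus no-compound control.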

human FAK = molecular target: T3, human FAK (Homo sapiens, UniProt Q05397); experiment: FAK autophosphorylation inhibition, time resolved fluorescence (HTRF) assay; conditions: 10 μM (values without asterisk); read-out: FAK % inhib at 10 μM
T3 construct: The complete cDNA of human FAK; made in house; host or cells: baculovirus expression system (vector pFastBac HTc)
T3 sequence (Q05397 whole entry): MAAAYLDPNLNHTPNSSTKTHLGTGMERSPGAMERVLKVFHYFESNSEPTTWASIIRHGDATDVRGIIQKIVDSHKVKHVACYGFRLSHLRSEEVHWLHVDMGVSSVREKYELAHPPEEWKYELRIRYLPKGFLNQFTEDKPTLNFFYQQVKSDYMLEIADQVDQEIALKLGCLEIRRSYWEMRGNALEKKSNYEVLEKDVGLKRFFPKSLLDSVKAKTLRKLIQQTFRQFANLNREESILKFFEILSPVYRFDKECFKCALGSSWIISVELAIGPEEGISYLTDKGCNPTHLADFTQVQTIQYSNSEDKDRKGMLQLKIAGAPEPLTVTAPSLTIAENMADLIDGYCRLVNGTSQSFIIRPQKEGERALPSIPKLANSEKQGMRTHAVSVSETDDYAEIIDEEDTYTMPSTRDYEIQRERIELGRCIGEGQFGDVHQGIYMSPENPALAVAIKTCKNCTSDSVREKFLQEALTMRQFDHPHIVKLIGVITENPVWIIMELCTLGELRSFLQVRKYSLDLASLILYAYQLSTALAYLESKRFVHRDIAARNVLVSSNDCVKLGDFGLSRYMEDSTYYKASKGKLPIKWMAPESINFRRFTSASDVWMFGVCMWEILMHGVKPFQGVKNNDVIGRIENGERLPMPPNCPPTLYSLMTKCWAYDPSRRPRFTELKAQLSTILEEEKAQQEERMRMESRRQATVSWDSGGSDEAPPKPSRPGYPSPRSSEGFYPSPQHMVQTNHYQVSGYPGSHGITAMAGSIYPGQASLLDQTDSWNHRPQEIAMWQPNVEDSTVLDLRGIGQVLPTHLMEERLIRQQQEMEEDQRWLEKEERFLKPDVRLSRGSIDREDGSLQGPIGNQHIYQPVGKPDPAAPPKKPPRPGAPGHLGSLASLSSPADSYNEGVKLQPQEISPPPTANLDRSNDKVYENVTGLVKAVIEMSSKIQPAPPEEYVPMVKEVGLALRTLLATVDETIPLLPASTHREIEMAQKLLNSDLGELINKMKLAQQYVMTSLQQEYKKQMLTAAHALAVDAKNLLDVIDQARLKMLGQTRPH
In short: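 His-tagged full-length human FAK from baculovirus (6.6 µg/ml) self-phosphorylates with 15 µM ATP in HEPES pH 7.2, MgCl2, vanadate, 1 h at 37 °C. HTRF detection (Eu-anti-phosphotyrosine / XL665-anti-His), 665/620 nm ratio; % inhibition vs untreated control, duplicate mean.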

human KDR enzyme = molecular target: T4, human KDR enzyme (Homo sapiens, UniProt P35968); experiment: KDR substrate (PLCγ) phosphorylation, scintillation assay; conditions: read-out: KDR % inhib at 10 μM
T4 construct: The cytoplasmic domain of the human KDR enzyme; GST; made in house; host or cells: SF21 insect cells (baculovirus)
T4 sequence (P35968 786-1356 limits assumed): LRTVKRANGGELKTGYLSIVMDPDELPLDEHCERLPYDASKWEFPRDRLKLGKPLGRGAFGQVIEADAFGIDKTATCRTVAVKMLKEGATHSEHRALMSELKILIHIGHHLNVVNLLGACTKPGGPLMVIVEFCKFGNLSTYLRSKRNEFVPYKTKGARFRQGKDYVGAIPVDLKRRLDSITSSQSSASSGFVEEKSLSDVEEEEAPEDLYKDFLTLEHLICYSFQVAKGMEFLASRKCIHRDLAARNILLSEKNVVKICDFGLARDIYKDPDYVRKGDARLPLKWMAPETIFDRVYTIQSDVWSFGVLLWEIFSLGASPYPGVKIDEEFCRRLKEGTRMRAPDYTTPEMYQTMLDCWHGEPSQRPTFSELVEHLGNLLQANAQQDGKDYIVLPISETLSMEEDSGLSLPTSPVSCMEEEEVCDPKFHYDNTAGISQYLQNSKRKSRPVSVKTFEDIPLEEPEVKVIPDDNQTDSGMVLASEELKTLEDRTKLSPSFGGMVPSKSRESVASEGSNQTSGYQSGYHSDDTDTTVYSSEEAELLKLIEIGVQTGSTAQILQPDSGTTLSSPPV
In short: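 GST-fused human KDR cytoplasmic domain from SF21 cells (about 60% pure, 100 ng) phosphorylated 2 μg of GST-PLCγ SH2-SH3 fragment. The trigger solution held γ33P-ATP with 2 μM cold ATP, in MOPS buffer pH 7.2 with Mg2+, Mn2+, vanadate and NaF. Reactions ran 1 h at 37 °C, were stopped with EDTA and counted by scintillation; results are % inhibition versus the no-compound control.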

Compound	inhibition at 10 µM ([1]; 10 μM) [%]	inhibition at 10 µM (Aurora2 kinase; 10 μM) [%]	inhibition at 10 µM (human FAK) [%]	inhibition at 10 µM (human KDR enzyme; 10 μM) [%]	inhibition at 10 µM [1] [%]	inhibition at 10 µM (Aurora2 kinase) [%]	inhibition at 10 µM (human KDR enzyme) [%]
C[Si](C)(C)C#Cc1cccc(-c2n[nH]c3ccc(NS(=O)(=O)c4ccccc4S(C)(=O)=O)cc23)c1 [Example 91, 2-Methylsulfonyl-N-[3-(3-trimethylsilanylethynylphenyl)-1H-indazol-5-yl]benzenesulfonamide]			95		7	11	35
CS(=O)(=O)c1ccccc1S(=O)(=O)Nc1ccc2[nH]nc(-c3cccc(C(F)(F)F)c3)c2c1 [Example 175, N-[3-(3-Trifluoromethylphenyl)-1H-indazol-5-yl]-2-methanesulfonyl-benzenesulfonamide]	81	88	90	68			
CS(=O)(=O)c1ccccc1S(=O)(=O)Nc1ccc2[nH]nc(-c3ccccc3-c3ccccc3)c2c1 [Example 173, N-(3-Biphenyl-2-yl-1H-indazol-5-yl)-2-methanesulfonyl-benzenesulfonamide]	27	77	62	32			
O=C(Nc1n[nH]c2ccc(NS(=O)(=O)c3cc(F)cc(F)c3)cc12)c1ccccc1 [Example 46, N-[5-(3,5-Difluorobenzenesulfonylamino)-1H-indazol-3-yl]benzamide]	82	95	90	82			
CS(=O)(=O)c1ccccc1S(=O)(=O)Nc1ccc2[nH]nc(-c3cccc4c3oc3ccccc34)c2c1 [Example 169, N-(3-(Dibenzofuran-4-yl)-1H-indazol-5-yl)-2-methanesulfonyl-benzenesulfonamide]	13	52	22	66			
Cc1cc(C)cc(-c2n[nH]c3ccc(NS(=O)(=O)c4ccccc4S(C)(=O)=O)cc23)c1 [Example 179, 2-Methanesulfonyl-N-[3-(3,5-dimethylphenyl)-1H-indazol-5-yl]benzenesulfonamide]	72	93	96	49			
O=S(=O)(Nc1ccc2[nH]nc(-c3ccc(O)cc3)c2c1)c1ccccc1 [Example 34, N-[3-(4-Hydroxyphenyl)-1H-indazol-5-yl]benzenesulfonamide]	89	100	87	96			
Nc1cc(Cl)cc(Cl)c1S(=O)(=O)Nc1ccc2[nH]nc(-c3ccccc3)c2c1 [Example 159, 2-Amino-4,6-dichloro-N-(3-phenyl-1H-indazol-5-yl)-benzenesulfonamide]	58	77	53	86			
O=S(=O)(Nc1ccc2[nH]nc(-c3ccccc3)c2c1)c1cccc2ccccc12 [Example 106, N-(3-Phenyl-1H-indazol-5-yl)-naphthalene-1-sulfonamide]	90	92	43	79			
CS(=O)(=O)c1ccccc1S(=O)(=O)Nc1ccc2[nH]nc(-c3ccc(Cl)s3)c2c1 [Example 181, N-[3-(5-Chlorothiophen-2-yl)-1H-indazol-5-yl]-2-methanesulfonyl-benzenesulfonamide]	55	94	83	49			
CN(C)c1cccc2c(S(=O)(=O)Nc3ccc4[nH]nc(-c5ccccc5)c4c3)cccc12 [Example 107, 5-Dimethylamino-N-(3-phenyl-1H-indazol-5-yl)naphthalene-1-sulfonamide]	84	43	10	51			
O=S(=O)(Nc1ccc2[nH]nc(-c3cc4ccccc4[nH]3)c2c1)c1ccccc1 [Example 82, N-[3-(1H-Indol-2-yl)-1H-indazol-5-yl]benzenesulfonamide]	100	100	93	100			

Further lines, with some results ahead:

inhibition at 10 µM ([1]; 10 μM) [%]	inhibition at 10 µM (Aurora2 kinase; 10 μM) [%]	inhibition at 10 µM (human FAK) [%]	inhibition at 10 µM (human KDR enzyme; 10 μM) [%]	Compound	inhibition at 10 µM [1] [%]	inhibition at 10 µM (Aurora2 kinase) [%]	inhibition at 10 µM (human KDR enzyme) [%]
56	94	91	45	CC(=O)c1ccc(-c2n[nH]c3ccc(NS(=O)(=O)c4ccccc4S(C)(=O)=O)cc23)cc1 [Example 207, N-[3-(4-Acetylphenyl)-1H-indazol-5-yl]-2-methanesulfonyl-benzenesulfonamide]			
70	92	91	71	Cc1ccc(-c2n[nH]c3ccc(NS(=O)(=O)c4ccccc4S(C)(=O)=O)cc23)cc1F [Example 224, N-[3-(3-Fluoro-4-methyl-phenyl)-1H-indazol-5-yl]-2-methanesulfonyl-benzenesulfonamide]			
72	89	90	47	CS(=O)(=O)c1ccccc1S(=O)(=O)Nc1ccc2[nH]nc(-c3ccc(F)c(F)c3)c2c1 [Example 192, N-[3-(3,4-Difluorophenyl)-1H-indazol-5-yl]-2-methanesulfonyl-benzenesulfonamide]			
60	86	87	31	CS(=O)(=O)c1ccccc1S(=O)(=O)Nc1ccc2[nH]nc(-c3cccc(OC(F)(F)F)c3)c2c1 [Example 219, N-[3-(3-Trifluoromethoxy-phenyl)-1H-indazol-5-yl]-2-methanesulfonyl-benzenesulfonamide]			
75	91	91	47	Cc1ccc(-c2n[nH]c3ccc(NS(=O)(=O)c4ccccc4S(C)(=O)=O)cc23)cc1C [Example 195, 2-Methanesulfonyl-N-[3-(3,4-dimethylphenyl)-1H-indazol-5-yl]benzenesulfonamide]			
66	92	94	49	Cc1cc(-c2n[nH]c3ccc(NS(=O)(=O)c4ccccc4S(C)(=O)=O)cc23)ccc1F [Example 222, N-[3-(4-Fluoro-3-methyl-phenyl)-1H-indazol-5-yl]-2-methanesulfonyl-benzenesulfonamide]			
60	90	94	35	CCOc1cccc(-c2n[nH]c3ccc(NS(=O)(=O)c4ccccc4S(C)(=O)=O)cc23)c1 [Example 186, N-[3-(3-Ethoxyphenyl)-1H-indazol-5-yl]-2-methanesulfonyl-benzenesulfonamide]			
73	88	96	45	CS(=O)(=O)c1ccccc1S(=O)(=O)Nc1ccc2[nH]nc(-c3ccc(CO)cc3)c2c1 [Example 191, N-[3-(4-Hydroxymethylphenyl)-1H-indazol-5-yl]-2-methanesulfonyl-benzenesulfonamide]			
